# Reference: patent publication US20110097274A1, “Carbon-11 and fluorine-18 labeled radioligands for positron emission tomography (PET) imaging for the brain serotonin transporters” (priority 2002, published 2011)
# Where “and” joins values, the source holds several entries; their conditions need not be identical. Equal entries are not always repeated. Where two headings read alike, the source gives them in different places.
# Columns and labels:
# [1] = Baboon PET imaging: brain uptake, kinetic analysis and SERT parameters; assay type: in vivo; details: male, baboon, intravenous, baboons
# Outline: (§1)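 Two isoflurane-anaesthetised adult male baboons, each radioligand tested twice (test-retest); i.v. bolus, 91 min 3D emission scan with arterial sampling, MRI-defined regions. Brain uptake as % ID g^−1, with peak time and washout; VT from one-tissue compartment model (K1/k2) using arterial plasma input.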
# SERT = test: as above; assay type: in vivo; details: for Kp: male, baboon, brain, intravenous
# Outline: as §1
# [2] = Plasma free fraction (f1) and filter retention by ultrafiltration; assay type: in vitro ADME, baboon; details: mean ± SD of four experiments
# Protocol: Plasma and ultrafiltrate activities were counted, and f1 was calculated as the ratio of ultrafiltrate activity to total plasma activity. Triplicate aliquots of the radioligand in pH 7.4 Tris buffer were also processed to determine the filter retention of free tracer.
# [3] = BP = VT ROI − VT CER, baboons, mean ± SD of four experiments
# [4] = Mean ± SD of four experiments in two baboons
# [5] = baboon A, experiments of FIGS. 5-9 (FIG. 10)
# [6] = baboons, mean ± SD of four experiments
# [7] = last scan 90 minutes, baboons, mean ± SD of four experiments
# [8] = one-tissue compartment model, baboons, mean ± SD of four experiments
smiles,measurement,setting,value
CN(C)Cc1ccccc1Sc1ccc(Br)cc1N [[^11C]DAPA],Kp,"[1]; brain regions (average of all regions), read-out: VT, average of all regions and all animals",47.8 ± 16
same,Kp,"[1]; cerebellum, one-tissue compartment model, mean ± SD of four experiments, read-out: VT Cerebellum (VT CER, nonspecific distribution volume)",29.3 ± 2.9
same,Binding potential Cingulate Cortex,SERT; [3],7.9 ± 1.0 mL/g
same,Binding potential Hippocampus,SERT; [3],15.5 ± 0.7 mL/g
same,Binding potential Midbrain,SERT; [3],40.0 ± 4.3 mL/g
same,Binding potential Occipital Cortex,SERT; [3],5.7 ± 1.9 mL/g
same,Binding potential Striatum,SERT; [3],22.9 ± 0.9 mL/g
same,Binding potential Temporal Cortex,SERT; [3],11.2 ± 3.3 mL/g
same,Binding potential Thalamus,SERT; [3],45.1 ± 1.8 mL/g
same,Equilibrium specific to non-specific partition coefficient (V3″) Cingulate Cortex,"SERT; Baboon A, single experiment",0.29 and 0.26
same,Equilibrium specific to non-specific partition coefficient (V3″) Hippocampus,"SERT; Baboon A, single experiment",0.54 and 0.48
same,Equilibrium specific to non-specific partition coefficient (V3″) Midbrain,"SERT; Baboon A, single experiment",1.41 and 1.37
same,Equilibrium specific to non-specific partition coefficient (V3″) Occipital Cortex,"SERT; Baboon A, single experiment",0.22 and 0.25
same,Equilibrium specific to non-specific partition coefficient (V3″) Striatum,"SERT; Baboon A, single experiment",0.73 and 0.72
same,Equilibrium specific to non-specific partition coefficient (V3″) Temporal Cortex,"SERT; Baboon A, single experiment",0.48 and 0.42
same,Equilibrium specific to non-specific partition coefficient (V3″) Thalamus,"SERT; Baboon A, single experiment",1.49 and 1.40
same,Equilibrium specific to non-specific partition coefficient (V3″) Cingulate Cortex,"SERT; Baboon B, single experiment",0.25 and 0.27
same,Equilibrium specific to non-specific partition coefficient (V3″) Hippocampus,"SERT; Baboon B, single experiment",0.56 and 0.54
same,Equilibrium specific to non-specific partition coefficient (V3″) Midbrain,"SERT; Baboon B, single experiment",1.42 and 1.27
same,Equilibrium specific to non-specific partition coefficient (V3″) Occipital Cortex,"SERT; Baboon B, single experiment",0.15
same,Equilibrium specific to non-specific partition coefficient (V3″) Striatum,"SERT; Baboon B, single experiment",0.91 and 0.79
same,Equilibrium specific to non-specific partition coefficient (V3″) Temporal Cortex,"SERT; Baboon B, single experiment",0.30 and 0.32
same,Equilibrium specific to non-specific partition coefficient (V3″) Thalamus,"SERT; Baboon B, single experiment",1.81 and 1.52
same,Equilibrium specific to non-specific partition coefficient (V3″) Cingulate Cortex,SERT; [4],0.27 ± 0.02
same,Equilibrium specific to non-specific partition coefficient (V3″) Hippocampus,SERT; [4],0.53 ± 0.04
same,Equilibrium specific to non-specific partition coefficient (V3″) Midbrain,SERT; [4],1.37 ± 0.07
same,Equilibrium specific to non-specific partition coefficient (V3″) Occipital Cortex,SERT; [4],0.19 ± 0.05
same,Equilibrium specific to non-specific partition coefficient (V3″) Striatum,SERT; [4],0.79 ± 0.09
same,Equilibrium specific to non-specific partition coefficient (V3″) Temporal Cortex,SERT; [4],0.38 ± 0.09
same,Equilibrium specific to non-specific partition coefficient (V3″) Thalamus,SERT; [4],1.55 ± 0.18
same,Thalamus to cerebellum ratio equal to true equilibrium ratio (V3″+1),SERT; [5],2.49
same,Time at which measured thalamus to cerebellum ratio equals the true equilibrium ratio (estimate of peak specific binding),SERT; [5],80 min
same,"K1, average of all regions and all animals",SERT; baboons,0.85 ± 0.23 mL/g/min
same,"k2, average of all regions and all animals",SERT; baboons,0.020 ± 0.008 min⁻¹
same,V3″ expressed in percentage of [^11C]McN 5652 V3″,"SERT; baboons, combining all regions",151±18%
same,Mean regional peak uptake time,"SERT; baboons, mean of all regions",50 ± 20 min
same,Mean regional wash-out (% decrease between peak time and last scan),"SERT; baboons, mean of all regions",12±11%
same,Cingulate Cortex to cerebellum activity ratio at 90 minutes,SERT; [6],1.27 ± 0.05
same,Hippocampus to cerebellum activity ratio at 90 minutes,SERT; [6],1.42 ± 0.13
same,Midbrain to cerebellum activity ratio at 90 minutes,SERT; [6],2.05 ± 0.31
same,Occipital Cortex to cerebellum activity ratio at 90 minutes,SERT; [6],1.19 ± 0.08
same,Regional uptake peak time Cerebellum,SERT; [6],24 ± 10 min
same,Regional uptake peak time Cingulate Cortex,SERT; [6],36 ± 8 min
same,Regional uptake peak time Hippocampus,SERT; [6],64 ± 15 min
same,Regional uptake peak time Midbrain,SERT; [6],71 ± 13 min
same,Regional uptake peak time Occipital Cortex,SERT; [6],36 ± 8 min
same,Regional uptake peak time Striatum,SERT; [6],51 ± 19 min
same,Regional uptake peak time Temporal Cortex,SERT; [6],49 ± 10 min
same,Regional uptake peak time Thalamus,SERT; [6],69 ± 13 min
same,Striatum to cerebellum activity ratio at 90 minutes,SERT; [6],1.69 ± 0.12
same,Temporal Cortex to cerebellum activity ratio at 90 minutes,SERT; [6],1.35 ± 0.16
same,Thalamus to cerebellum activity ratio at 90 minutes,SERT; [6],2.15 ± 0.30
same,Total brain uptake at 45 min,"SERT; baboons, region encompassing the entire brain",0.018±0.002 % ID g^−1
same,"Regional activity wash-out: % decrease from peak to last scan, Cerebellum",SERT; [7],29 ± 14%
same,"Regional activity wash-out: % decrease from peak to last scan, Cingulate Cortex",SERT; [7],19 ± 9%
same,"Regional activity wash-out: % decrease from peak to last scan, Hippocampus",SERT; [7],4 ± 5%
same,"Regional activity wash-out: % decrease from peak to last scan, Midbrain",SERT; [7],2 ± 3%
same,"Regional activity wash-out: % decrease from peak to last scan, Occipital Cortex",SERT; [7],18 ± 7%
same,"Regional activity wash-out: % decrease from peak to last scan, Striatum",SERT; [7],8 ± 8%
same,"Regional activity wash-out: % decrease from peak to last scan, Temporal Cortex",SERT; [7],11 ± 5%
same,"Regional activity wash-out: % decrease from peak to last scan, Thalamus",SERT; [7],3 ± 4%
same,Kp,"SERT; cingulate cortex, one-tissue compartment model, baboons, mean ± SD of four experiments, read-out: VT Cingulate Cortex",37.1 ± 3.8
same,Kp,"SERT; hippocampus, one-tissue compartment model, baboons, mean ± SD of four experiments, read-out: VT Hippocampus",44.7 ± 3.4
same,Kp,"SERT; midbrain, one-tissue compartment model, baboons, mean ± SD of four experiments, read-out: VT Midbrain",69.2 ± 7
same,Kp,"SERT; occipital cortex, one-tissue compartment model, baboons, mean ± SD of four experiments, read-out: VT Occipital Cortex",35 ± 4.8
same,Kp,"SERT; striatum, one-tissue compartment model, baboons, mean ± SD of four experiments, read-out: VT Striatum",52.1 ± 3
same,Kp,"SERT; temporal cortex, one-tissue compartment model, baboons, mean ± SD of four experiments, read-out: VT Temporal Cortex",40.5 ± 6
same,Kp,"SERT; thalamus, one-tissue compartment model, baboons, mean ± SD of four experiments, read-out: VT Thalamus",74.4 ± 3.1
same,K1 Cerebellum,SERT; [8],0.99 ± 0.29 mL/g/min
same,K1 Cingulate Cortex,SERT; [8],0.91 ± 0.24 mL/g/min
same,K1 Hippocampus,SERT; [8],0.67 ± 0.16 mL/g/min
same,K1 Midbrain,SERT; [8],0.86 ± 0.27 mL/g/min
same,K1 Occipital Cortex,SERT; [8],0.83 ± 0.17 mL/g/min
same,K1 Striatum,SERT; [8],0.90 ± 0.26 mL/g/min
same,K1 Temporal Cortex,SERT; [8],0.78 ± 0.18 mL/g/min
same,K1 Thalamus,SERT; [8],0.89 ± 0.26 mL/g/min
same,K2 Cerebellum,SERT; [8],0.034 ± 0.009 min⁻¹
same,K2 Cingulate Cortex,SERT; [8],0.025 ± 0.006 min⁻¹
same,K2 Hippocampus,SERT; [8],0.015 ± 0.003 min⁻¹
same,K2 Midbrain,SERT; [8],0.012 ± 0.003 min⁻¹
same,K2 Occipital Cortex,SERT; [8],0.024 ± 0.005 min⁻¹
same,K2 Striatum,SERT; [8],0.017 ± 0.005 min⁻¹
same,K2 Temporal Cortex,SERT; [8],0.019 ± 0.004 min⁻¹
same,K2 Thalamus,SERT; [8],0.012 ± 0.004 min⁻¹
same,Filter retention,"[2]; activity remaining on filter, radioligand dissolved in saline",77.9 ± 6.6%
same,fraction unbound at 20 min,"[2]; male, monkey, baboon plasma, ultrafiltration",0.018 ± 0.005
